Results from patent publication US10533231B2, “Artificial bioluminescent enzyme” (NATIONAL INSTITUTE OF ADVANCED INDUSTRIAL SCIENCE AND …, priority 2012, dated 2020).
Values belong to the molecule of their own block, whether it stands above or below them.

Experiments:
[1] = tested on: artificial luciferase (ALuc); test: Search for assay buffer compatible with C3 (Example 2-2); type: cell-based; settings: C3 lysis; 8- and 16-minute point
Method: After 16-hour incubation in a CO2 incubator, 50 μL of a C3 solution was added to each well to allow for cell lysis for 20 minutes. Substrate-containing assay buffers shown in FIG. 24 were individually added simultaneously (50 μL each) to the lysate, and the relative luminescence intensities were immediately measured with an LAS-4000 (Fujifilm). After the substrate-containing assay buffers were further added, the luminescence at the 8- and 16-minute point was measured to examine the luminescence stability.

[2] = target: T1, integrated-molecule-format bioluminescent probe with androgen receptor (Homo sapiens, UniProt P10275); test: Effect of adding halogen ions, androgen probe (Example 2-5); type: cell-based; settings: about 100 mM
T1 construct: an androgen receptor (AR LED) was inserted therebetween; expressed in transfected cells; host or cells: COS-7
T1 sequence (P10275 669-900 limits assumed): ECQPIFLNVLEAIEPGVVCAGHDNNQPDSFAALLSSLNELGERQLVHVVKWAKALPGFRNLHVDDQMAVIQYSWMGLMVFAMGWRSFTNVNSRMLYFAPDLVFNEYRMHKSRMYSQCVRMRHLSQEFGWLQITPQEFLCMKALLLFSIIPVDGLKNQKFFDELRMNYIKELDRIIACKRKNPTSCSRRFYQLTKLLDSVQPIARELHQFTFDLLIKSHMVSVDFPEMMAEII
Method: After 16-hour incubation in a CO2 incubator, 50 μL of a C3 solution was added to each well to allow for cell lysis for 20 minutes.

[3] = target: estrogen receptor (ER LBD) (Homo sapiens, UniProt P03372); settings: 10^−5 M, 20 minutes, COS-7 cells with pSimer-r2, C16 one-shot buffer
Chain of estrogen receptor (ER LBD) (P03372 311-547 limits assumed, species assumed): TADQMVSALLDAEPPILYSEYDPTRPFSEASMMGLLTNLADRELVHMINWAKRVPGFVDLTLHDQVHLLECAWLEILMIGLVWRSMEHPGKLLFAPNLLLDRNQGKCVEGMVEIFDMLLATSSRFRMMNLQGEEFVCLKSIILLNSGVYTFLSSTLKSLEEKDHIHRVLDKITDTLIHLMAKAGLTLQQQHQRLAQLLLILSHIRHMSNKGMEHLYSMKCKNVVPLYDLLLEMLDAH

[4] = tested on: EB3 cells expressing cSimgr13; test: Stress hormone sensitivity of ES cells expressing cSimgr13 (Example 1-17); type: cell-based; settings: 10^−5 M, 20 minutes
Method: Novel ES cells expressing cSimgr13, which is an integrated-molecule-format bioluminescent probe containing the ALuc of Example 10 in its frame structure were established to visualize stress hormone sensitivity (FIG. 17). First, EB3 cells, which are feeder-free embryonic stem cells (ES), were cultured in a 10 cm dish, and then a pcDNA3.1 (+) vector encoding cSimgr13 was introduced into the EB3 cells. In the presence of G418, transformed cells stably expressing cSimgr13 were established.
One day after the subculturing of the transformed cells in a microslide, some of the cells in the wells were used as a control (0.1% DMSO), and the others were stimulated with 10^−5 M stress hormone (cortisol) for 20 minutes. Subsequently, after lysis, the cells were illuminated using a substrate-containing assay buffer in accordance with the protocol of luminescence assay kit produced by Promega, and the luminescence intensity was measured using an LAS-4000.

[5] = tested on: COS-7 cells; test: Toxicity of STS with luminescence measurement device and luminometer (Example 1-11); type: cell-based, monkey; settings: STS 1 μM, 10 minutes, membrane-localized probe
Method: (§1) Using the luminescence measurement device, the toxicity of a cell death-inducing chemical substance (STS) was measured (see FIG. 11). Monkey kidney-derived COS-7 cells were scattered in a commercially available microslide for cell culturing (produced by ibidi), and the cells were cultured until 90% of the microslide area was filled with the cells. The cells were transfected with a plasmid encoding a bioluminescence probe, followed by culturing for another 24 hours. The cells cultured in the microslide were stimulated with or without STS (final concentration: 1 μM) for 10 minutes (FIG. 11B).
The luminescence measurement was performed in the following manner. The microslide was washed once with an HBSS buffer, and a substrate-containing HBSS buffer (100 μL) was simultaneously introduced into each microslide channel, and the microslide was immediately fixed to the luminescent measurement device. […] The luminescence value was measured by changing the channels and the filters (three-second light condensation, n=3, see FIG. 11C).

[6] = tested on: COS-7 cells; test: Cytotoxic measurement using bioluminescent capsule containing ALuc16 (Example 1-13); type: cell-based; settings: stimulated for two minutes, capsule SEQ ID NO: 19, LAS-4000
Method: The cytotoxicity of a chemical substance was measured using the bioluminescent capsule (SEQ ID NO: 19) containing ALuc 16 in its frame structure (FIG. 13). First, COS-7 cells were cultured in a 6-channel microslide, and a gene encoding SEQ ID NO: 19 was introduced into the cells, followed by culturing for another 16 hours. Subsequently, the cells were stimulated for two minutes with or without the cytotoxic substance (STS), and the luminescence image showing a bioluminescence intensity difference in a substrate-containing solution was evaluated using an LAS-4000 (FujiFilm).

[7] = tested on: COS-7 cells; test: Toxicity of STS by change in luminescence spectrum (Example 1-12); type: cell-based, monkey; settings: STS (1 μM) stimulation vs without, 10 minutes
Method: as §1, with “device of the present invention,” for “device,”, “measured based on changes in luminescence spectrum” for “measured”, “12). First, monkey” for “11). Monkey”, “for” for “for another”, “[…])” for “μM)”, “minutes.” for “minutes (FIG. 11B).”
The luminescence measurement was performed in the following manner. The microslide was washed once with an […] buffer, and a substrate-containing HBSS buffer (100 μL) was simultaneously introduced into each slide channel, and the microslide was mounted on the measurement device. After the device was covered with a mirror cap, the device was further mounted on a conventional spectrum meter (AB-1850; ATTO) (FIG. 12A). The luminescence spectrum from each channel was measured (two-minute light condensation, n=3, see FIG. 12B).

[8] = tested on: stress hormone receptor (glucocorticoid receptor ligand binding domain; GR HLBD); test: Integrated-molecule-format bioluminescent probes, ALuc16 bisection sites (Example 1-10); type: cell-based; settings: presence/absence of cortisol
Source text: First, ALuc was bisected into two segments, and arranged right and left. A stress hormone receptor (glucocorticoid receptor ligand binding domain; GR HLBD) and its binding peptide (LXXLL motif) were respectively connected to the end of the two segments. As shown in the lower row of FIG. 10A, the working mechanism of the probe is such that a molecule is folded in the presence of a ligand, thus recovering the luminescence intensity.
In the bisection of ALuc16, the probes were named as cSimgr8 (SEQ ID NO: 21) to cSimgr14 according to its bisection point. The bisection point corresponding to each plasmid is as follows: cSimgr8 (125/126), cSimgr9 (129/130), cSimgr10 (133/134), cSimgr11 (137/138), cSimgr12 (137/138; containing a mutant at the joint portion), cSimgr13 (141/142), and cSimgr14 (146/147).

[9] = tested on: COS-7 cells; test: Luminescence image of COS-7 cell lysate on microslide (Example 1-20); type: cell-based; settings: Promega lysate and assay buffer
Method: (§2) Similarly, COS-7 cells were cultured in a microslide produced by ibidi. After the cells were raised to a certain level, the following genes were transferred to the cells in the channels. Channel group 1: pcDNA3.1 plasmid having a gene encoding Cypridina luciferase; Channel group 2: pcDNA3.1 plasmid having a gene encoding A16-KDEL; and Channel group 3: pcDNA3.1 plasmid having a gene encoding a luminescent capsule based on A16 (i.e., A16-MLS).
After gene transfer, culturing was performed for another 16 hours. 20 minutes before imaging, 40 μL of a lysate buffer produced by Promega was added, and the resultant was allowed to stand for 20 minutes. Further, a substrate-containing assay buffer produced by Promega was added to the medium of each channel, and the luminescence image obtained after the addition was measured using an LAS-4000 (FujiFilm).

[10] = tested on: COS-7 cells; test: Living cell imaging (Example 1-20); type: cell-based; settings: HBSS buffer containing substrate
Method: as §2, with “First, COS-7” for “Similarly, COS-7”, “encoding a luminescent enzyme derived from Renilla reniformis (RLuc8.6-535);” for “encoding Cypridina luciferase;”, “on ALuc16” for “on A16”
After gene transfer, culturing was performed for another 16 hours. Immediately before imaging, the medium was substituted with an HBSS buffer containing a substrate, and the luminescence image obtained after the substitution was measured using an LAS-4000 (FujiFilm).

[11] = Luminescent capsule probe, luminescence stability and intensity (Example 1-7); type: cell-based; settings: localized in the endoplasmic reticulum
Source text: A “luminescent capsule” probe containing the artificial luciferase (ALuc) of the present invention in its frame structure was developed (FIG. 7). The basic molecular structure of the luminescent capsule of the present invention comprises an extracellular secretion signal (SP), ALuc, a suitable cargo protein (peptide), and a membrane localization signal. Because of the SP, the probe is first transferred to the endoplasmic reticulum, and then transferred from the endoplasmic reticulum to the plasma membrane. This probe is designed to finally localize in the plasma membrane by the function of MLS (FIG. 7 AB).
The luminescent capsule has the ability to localize a fluorescence protein (mPlum), other luciferases (RLuc8.6-535), and a peptide (DEVD sequence, etc.) in the plasma membrane. […] The luminescent reaction speed of the luminescent capsule after substrate injection was faster than those of other molecules (FIG. 7D). Further, the luminescent capsule containing a […] (SEQ ID NO: 19) was confirmed to have a different luminescent reaction speed according to the presence or absence of a cell death-inducing chemical substance (STS) (FIG. 7E). The luminescence stability of the luminescent capsule was also confirmed by using a microplate reader for luminescence measurement (FIG. 7F).

Molecule: bovine serum albumin [BSA]
- luminescence stability with assay buffer [1]: the luminescence intensity and luminescence stability were poor

- effect of halogen ion addition [2]: excellent results
Molecule: [Br-].[K+] [KBr]

- luminescence higher than the background [3]: about 5 folds
Molecule: 4-hydroxytamoxifen [OHT]

Molecule: C[C@]12CCC(=O)C=C1CC[C@@H]1[C@@H]2[C@@H](O)C[C@@]2(C)[C@H]1CC[C@]2(O)C(=O)CO [cortisol]
- luminescence vs control (0.1% DMSO) [4]: stronger luminescence than the control

Molecule: CN[C@@H]1C[C@H]2O[C@@](C)([C@@H]1OC)n1c3ccccc3c3c4c(c5c6ccccc6n2c5c31)C(=O)NC4 [STS]
- increase of luminescence intensity [5]: about 75%
- luminescence intensity with vs without cytotoxic substance [6]: two folds higher
- change of luminescence spectrum [7]: increase in the luminescence intensity in the full wavelength

- S/N ratio of probe [8]: good S/N ratio
- absolute luminescence intensity of probe [8]: low absolute luminescence intensity
B1: cSimgr8: integrated-molecule-format bioluminescent probe, ALuc16 bisected at 125/126, SEQ ID NO: 21 (protein)
chain: MNALLRYLLDKDGSGIGEAIVDIPEIPGFKDLEPMEQFIAQVDLCVDCTTGCLKGLANVKCSDLLKKWLPSRCATFASKIQAQVDKIKGAGGLSGSGGNPTENKDDIDIVGVEGKFGTTDLETDLFTIVEDMNVISRDTDVDANRADRGRRGKLPGKKLPLEVLKELEANAQKAGCTRGCLICLSHIKCTAKMKKWLPGRCESWEGDKETGQGGGGGTMNLEARKTKKKIKGIQQATTGVSQETSENPGNKTIVPATLPQLTPTLVSLLEVIEPEVLYAGYDSSVPDSTWRIMTTLNMLGGRQVIAAVKWAKAIPGFRNLHLDDQMTLLQYSWMFLMAFALGWRSYRQSSANLLCFAPDLIINEQRMTLPCMYDQCKHMLYVSSELHRLQVSYEEYLCMKTLLLLSSVPKDGLKSQELFDEIRMTYIKELGKAIVKREGNSSQNWQRFYQLTKLLDSMHEVVENLLNYCFQTFLDKTMSIEFPEMLAEIITNQIPKYSNGNIKKLLFHQK
modifications: Synthetic cSimgr8 (single-chain probe)

B2: A16-KDEL: ALuc16 with KDEL, localized in the endoplasmic reticulum, SEQ ID NO: 18 (protein)
chain: MMGIKVLFALICFALVQANPTENKDDIDIVGVEGKFGTTDLETDLFTIVEDMNVISRDTDVDANRADRGRRGKLPGKKLPLEVLKELEANAQKAGCTRGCLICLSHIKCTAKMKKWLPGRCESWEGDKETGQGGIGEAIVDIPEIPGFKDLEPMEQFIAQVDLCVDCTTGCLKGLANVKCSDLLKKWLPSRCATFASKIQAQVDKIKGAGGSKDEL
modifications: KDEL ER retention signal; Synthetic KDEL-linked ALuc16
- luminescence of cell lysate [9]: strong luminescence
- luminescence image of living cells [10]: strong luminescence image
- luminescence intensity [11]: poor luminescence intensity
